Structures are written as SMILES. A value given as a limit tells only on which side of the number the result lay.

The text below walks through data of US5474988A, “5-phenylpyrrolo-1,4-benzoxazine and 5-phenylpyrrolo-1,4-benzothiazine compounds, process and intermediates for their production and pharmaceutical compositions containing them” (Kali-Chemie Pharma GmbH, priority 1993, dated 1995).

For one series, the system named is male mice. The note with it: mouse, in vivo, po, 1440 min. The method, then:
2. Determination of the minimum toxic dose.
Maximum doses of 300 mg/kg of the test substance were administered orally to male mice each weighing 20-25 g. The animals were carefully observed for symptoms of toxicity for 3 hours. All symptoms and deaths were additionally recorded over a period of 24 hours after administration. Associated symptoms were likewise observed and recorded. If death or severely toxic symptoms were observed, increasingly lower doses were administered to further mice. The lowest dose which caused death or severely toxic symptoms is indicated as the minimum toxic dose in the following Table B: […]

For series [1], the system named is P.A.F.-induced aggregation of blood platelets. In words: anti-P.A.F. action in vitro (P.A.F.-induced platelet aggregation). It is filed as cell-based. The note with it: Oryctolagus cuniculus, 10^-5 mole/liter, read-out: Anti-P.A.F. activity in vitro, % inhibition of the P.A.F.-induced aggregation of blood platelets from rabbit blood. The essentials: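 Washed rabbit platelets (4×10^9/ml stock suspension, aspirin-lysine treated) in modified Tyrode buffer pH 7.4 with 1.3 mM CaCl2 and gelatine; test substance at 10^-5 mol/l final, 90 s preincubation before P.A.F. Aggregation followed 4-5 min by aggregometer; % inhibition of P.A.F.-induced aggregation increase calculated.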

Series [2] has as its system cutaneous histamine induced anaphylactoid reactions. Description: inhibition of the anaphylactoid cutaneous reaction induced by histamine. Type of series: in vivo, Sprague-Dawley rats. The note with it: Rattus norvegicus, po, 0.5 h; 2 × 10^-5 mole/kg p.o., one hour before histamine; assessed 30 minutes after provocation; read-out: Inhibitory action against cutaneous histamine induced anaphylactoid reactions in rats, % inhibition. The method, then: 1. Determination of the inhibition of the anaphylactoid cutaneous reaction induced by histamine.
The inhibition of the anaphylactoid cutaneous reaction induced by histamine was determined in Sprague-Dawley rats having body weights of 150-180 g.
In order to determine the histamine-induced anaphylactoid skin reaction, 50 μl of a physiological saline solution containing 0.8 mg/ml of histamine were injected into the animals intradermally on one flank. Immediately afterward, a solution of 26.4 mg/kg of a blue dye (Evan's Blue) was administered i.v. to the animals.
The test substances were dissolved in distilled water which contains 1% by volume of dimethylformamide and 1% by volume of Tween®20 (=polyoxyethylene(20) sorbitan monolaurate). One hour before the histamine injection, each animal received 2×10^-5 mol/kg of test substance, in each case administered orally in 0.5 ml of solution. A control group received only the solvent for comparison.
The histamine-induced anaphylactoid reactions which manifested themselves by edema formation, swelling and exudation of blue dye are assessed 30 minutes after provocation by the histamine injection. This is carried out by visual determination of the extent of the exudation of blue dye at the sites of edema formation. With the aid of comparison scales, the percentage inhibition of the anaphylactoid reactions produced by the test substances is determined in comparison with the reactions of the control animals not treated with test substance.
The results obtained with compounds of the formula I by the above test method are reproduced in the following table A. The example numbers given as identifiers for the compounds of formula I refer to the subsequent preparative examples.

The next series deals with 5-lipoxygenase. In words: inhibition of 5-lipoxygenase activity in polymorphonuclear rat leucocytes (LTB4 formation). It is filed as cell-based. The note with it: 10^-5 mol/l; 22° C. The method, boiled down: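 Thioglycolate-elicited peritoneal PMNs from male Sprague-Dawley rats (0.5×10^6 cells) preincubated 15 min at 22 °C with 10 μM compound in HEPES-buffered HBSS, then stimulated with 5 μM calcimycin for 10 min. LTB4 quantified by reverse-phase HPLC at 270 nm; % inhibition versus solvent control.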

In the series on male mice, `COc1ccc(-c2c(C)c3cccc4c3n2CC(CN2CCN(c3cc(C)ccn3)CC2)O4)cc1` (stereo not drawn) [Example 5, 2,3-Dihydro-5-(4-methoxyphenyl)-6-methyl-2-[4-(4-methylpyridin-2-yl)piperazin-1-ylmethyl]pyrrolo[1,2,3-de]-1,4-benzoxazine] returned a Minimum toxic dose greater than 300 mg/kg. Besides, in series [1], the inhibition (as a rule, the drop in the measured response relative to a control, in per cent) at 10 µM turned out to be 100%.
As for `Cc1ccnc(N2CCN(CCC3Cn4c(-c5ccc(O)cc5)c(C)c5c(Cl)ccc(c54)O3)CC2)c1` (stereo not drawn) [Example 19], in series [2], the inhibition in vivo at 20 µmol/kg was 45%. Further, the Minimum toxic dose in the series with male mice is greater than 300 mg/kg. In addition, the inhibition at 10 µM in series [1] was found to be 71%. Also, in the series on 5-lipoxygenase, the “In vitro inhibitory activity on LTB4 formation in rat PMNs stimulated by calcium ionophore A23187” value is listed as 45%.
